Columns and labels:
NK cells = assay: Ex vivo NK cell effector function in tumor-bearing lungs (IFNγ, CD107a); parameters: species or system mouse
Method: FIG. 3. Upregulation of surface MR1 on tumor cells suppresses NK cell function through MAIT cells. (A) Schematic to analyze NK effector function in the lungs of C57BL/6 WT or MR1^−/− mice injected with 5-OP-RU-pulsed B16F10 or LWT1 cells. On day 5 relative to tumor inoculation, lungs were harvested from the indicated groups of mice (n=5-6/group) and stimulated with PMA/ionomycin plus protein transport inhibitors and NK cell effector function was assessed by flow cytometry. (B) Representative contour plots of IFNγ staining in NK cells (NKp46^+ NK1.1^+ TCRβ^− CD45.2^+) and (C) the proportion and MFI of IFNγ^+ NK cells amongst total NK cells in B16F10-bearing lungs. (D) Representative contour plots of CD107a staining in NK cells and (E) the proportion and MFI of CD107a^+ NK cells amongst total NK cells in B16F10 tumor-bearing lungs. (F) Representative contour plots of IFNγ staining in NK cells and (G) the proportion and MFI of IFNγ^+ NK cells amongst total NK cells in LWT1 tumor-bearing lungs. (H) Representative contour plots of CD107a staining in NK cells and (I) the proportion and MFI of CD107a^+ NK cells amongst total NK cells in the LWT1-bearing lungs. Data presented as mean±SEM. Significant differences between groups as indicated by crossbars were determined using a one-way ANOVA followed by Tukey's post-hoc test, *p<0.05, **p<0.01, ***p<0.001, ****p<0.0001.
FIG. 4. Upregulation of MR1 on B16F10 activates MAIT cells to suppress NK cell effector function through IL-17. (A) Schematic to analyze MAIT or NK cell effector function in the lungs of C57BL/6 WT or MR1^−/− mice injected with 5-OP-RU- or DMSO-stimulated B16F10 melanoma cells. On day 5 relative to tumor inoculation, lungs were harvested and stimulated with PMA/ionomycin plus protein transport inhibitors for 4 hours and MAIT or NK cell function was assessed by flow cytometry. (B) The proportion of CD69^+ MAIT cells amongst total MAIT cells (B220^− F4/80^− MR1-5-OP-RU tetramer^+ TCRβ^+) in naïve or tumor-bearing lungs. Data presented as mean±SEM. (C) Representative dot plot of IL-17 expression by MAIT cells. The (D) proportion of IL-17^+ MAIT cells amongst total MAIT cells in the lungs of naïve and tumor-bearing mice as indicated. Data presented as mean±SEM. (E) Representative dot plot of TNF expression by MAIT cells. The (F) proportion of TNF MAIT cells and (G) IFNγ^+ MAIT cells amongst total MAIT cells in the lungs of naïve and tumor-bearing mice as indicated. (H, I) On day 5 relative to tumor inoculation, lungs were harvested (n=6/group) and stimulated with PMA/ionomycin plus protein transport inhibitors for 3 hours and NK cell function was assessed by flow cytometry. The proportion of IFNγ^+ NK cells and CD107a^+ NK cells amongst total NK cells (NKp46^+ NK1.1^+ TCRβ^− CD45.2^+) in tumor-bearing C57BL/6 WT or IL-17^−/− mice. Data presented as mean±SEM. (J) Groups of WT or MR1^−/− mice (n=4-6/group) were injected i.v. with 1×10^5 B16F10 melanoma cells. In some groups, sorted MAIT cells (2×10^5 cells/mouse) from C57BL/6 WT or IL-17A^−/− mice were i.v. injected into the indicated groups of mice one day before tumor inoculation. On day 14 relative to tumor cell inoculation, lungs were harvested and the metastatic burden was quantified by counting colonies on the lung surface. Data presented as mean±SEM. Data pooled from two independent experiments for (B, D, F, G). Experiments were performed once for (H-K). Significant differences between groups as indicated by crossbars were determined using a one-way ANOVA followed by Tukey's post-hoc test (B, D, F, J), or a Mann-Whitney test (H, I), *p<0.05, **p<0.01, ***p<0.001, ****p<0.0001.
Single cell suspensions from lungs of the indicated groups were incubated in a 96-well U-bottom plate in complete RPMI 1640 media. Cells were incubated in the presence or absence of cell stimulation cocktail (PMA/ionomycin) plus protein transport inhibitors (Golgistop and Golgiplug) (1000 times dilution) for 3-4 hours as indicated. […]

MR1 on human cell lines = target: T1, MR1 on human cell lines (Homo sapiens, UniProt Q95460); assay: MR1 surface expression on human cell lines after ligand incubation; format: cell-based; conditions: range of human cell lines, after incubation (not shown)
T1 construct: endogenous in cells
T1 sequence (Q95460 23-341): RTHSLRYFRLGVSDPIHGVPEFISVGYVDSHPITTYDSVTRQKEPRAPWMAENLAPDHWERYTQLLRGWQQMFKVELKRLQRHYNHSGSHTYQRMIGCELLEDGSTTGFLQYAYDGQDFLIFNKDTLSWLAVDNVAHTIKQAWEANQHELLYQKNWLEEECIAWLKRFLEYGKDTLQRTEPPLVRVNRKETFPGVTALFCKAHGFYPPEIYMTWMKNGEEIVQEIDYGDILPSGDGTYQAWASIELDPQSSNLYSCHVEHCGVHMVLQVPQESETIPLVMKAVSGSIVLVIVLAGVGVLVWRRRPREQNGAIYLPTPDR
Excerpt: MR1 mRNA transcripts are present in different tissues and cell lines from mice and humans. […] In contrast, whether mouse tumor cell lines express MR1 has not previously been examined. […] Basally, the level of MR1 was almost undetectable on the surface of all tumor cell lines examined (FIG. 2D). […] The kinetics of MR1 upregulation on B16F10 cells was similar to what was previously reported for human C1R cells (B-cell lymphoblastoid cell line) (McWilliam et al., 2016). […] Next, the impact of up-regulation of MR1 on B16F10 or LWT1 prior to i.v injection to WT or MR1−/− mice on the number of lung metastases was assessed.

B16F10 cells = assay: B16F10 proliferative and migratory assays in vitro; format: cell-based, mouse; conditions: co-culture of B16F10 with ligand

Compound: CC(=O)C=Nc1c(NC[C@H](O)[C@H](O)[C@H](O)CO)[nH]c(=O)[nH]c1=O [5-OP-RU]
- proportions of IFNγ producing and CD107a expressing NK cells (NK cells; IL-17A-/- mice, treated vs DMSO-treated B16F10, day 5): this reduction was not observed
- NK cell effector function (NK cells; MR1-/- mice that received treated LWT1): did not manifest
- NK cell effector function (NK cells; WT mice that received treated LWT1): suppression of NK cell effector function was observed
- NK cell function (NK cells; lungs of MR1-/- mice, treated vs DMSO-treated B16F10, day 5): not suppressed
- proportions of NK cells producing IFNγ and MFI (NK cells; lungs of WT mice bearing treated vs DMSO-treated B16F10, day 5): significantly decreased
- proportions of NK cells expressing CD107a and expression levels (NK cells; lungs of WT mice, treated vs DMSO-treated B16F10, day 5): significantly decreased
- MR1 expression (MR1 on human cell lines): became upregulated
- B16F10 biology as measured by proliferative or migratory assays (B16F10 cells): did not alter the biology of these cells

From patent US20220213198A1, “METHOD OF TREATMENT” (The Council of the Queensland Institute of Medical Research, priority 2019, published 2022)
